# From ChEMBL document CHEMBL1201862, “PubChem BioAssay data set” (2004)
#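 Cells were grown in 96-well plates and exposed to each compound for 48 hours at five concentrations; endpoints were interpolated linearly between bracketing concentrations, or set to the highest concentration if not reached. Abbreviation: GI50, concentration required for 50% inhibition of growth.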 Calls of active or inactive are those of the source. No stated cut-off is given here; in the data, active = GI50 up to about 1.1 µM and inactive = higher.
# Tests used:
# Assay in all cases: DTP human tumour cell line panel, 48 h
# SN12C = tested on: SN12C
# SK-MEL-28 = tested on: SK-MEL-28
# U-251 = tested on: U-251
# TK-10 = tested on: TK-10
# SNB-75 = tested on: SNB-75
# 786-0 = tested on: 786-0
# SW-620 = tested on: SW-620
# SNB-19 = tested on: SNB-19
# SF-539 = tested on: SF-539
# Hs-578T = tested on: Hs-578T
# NCI-H522 = tested on: NCI-H522
# HOP-62 = tested on: HOP-62
# UACC-62 = tested on: UACC-62
# SR = tested on: SR
# OVCAR-3 = tested on: OVCAR-3
# COLO 205 = tested on: COLO 205
# HCT-116 = tested on: HCT-116
# DU-145 = tested on: DU-145
# RXF 393 = tested on: RXF 393
# A498 = tested on: A498
SMILES,GI50 (SN12C),GI50 (SK-MEL-28),GI50 (U-251),GI50 (TK-10),GI50 (SNB-75),GI50 (786-0),GI50 (SW-620),GI50 (SNB-19),GI50 (SF-539),GI50 (Hs-578T),GI50 (NCI-H522),GI50 (HOP-62),GI50 (UACC-62),GI50 (SR),GI50 (OVCAR-3),GI50 (COLO 205),GI50 (HCT-116),GI50 (DU-145),GI50 (RXF 393),GI50 (A498)
Nc1ccc2ccc(N3CCNCC3)nc2n1,51.2 µM (inactive),> 100 µM (inactive),80.2 µM (inactive),> 100 µM (inactive),> 100 µM (inactive),61.7 µM (inactive),47.6 µM (inactive),42.2 µM (inactive),71.3 µM (inactive),47.5 µM (inactive),45.3 µM (inactive),23.9 µM (inactive),59.2 µM (inactive),33.4 µM (inactive),17.9 µM (inactive),49.1 µM (inactive),43.2 µM (inactive),> 100 µM (inactive),,
COC(=O)C(CCCCN)NC(=O)C(CCCCN)NC(=O)C(CCCCN)NC(C)=O.Cc1ccc(C(=O)Nc2ccc(S(=O)(=O)O)c3cc(S(=O)(=O)O)cc(S(=O)(=O)O)c23)cc1NC(=O)c1cccc(NC(=O)Nc2cccc(C(=O)Nc3cc(C(=O)Nc4ccc(S(=O)(=O)O)c5cc(S(=O)(=O)O)cc(S(=O)(=O)O)c45)ccc3C)c2)c1,> 50 µM (inactive),> 50 µM (inactive),> 50 µM (inactive),,10.7 µM (inactive),> 50 µM (inactive),> 50 µM (inactive),> 50 µM (inactive),> 50 µM (inactive),> 50 µM (inactive),,,> 50 µM (inactive),> 50 µM (inactive),> 50 µM (inactive),> 50 µM (inactive),> 50 µM (inactive),> 50 µM (inactive),> 50 µM (inactive),> 50 µM (inactive)
O=C1CSC(c2cccc(Cl)c2)N1c1c(O)c(Cl)cc(Br)c1Cl (stereo unspecified),58.5 µM (inactive),> 100 µM (inactive),25.5 µM (inactive),83.4 µM (inactive),29.4 µM (inactive),25.5 µM (inactive),17.2 µM (inactive),> 100 µM (inactive),28.8 µM (inactive),29.8 µM (inactive),,> 100 µM (inactive),22.6 µM (inactive),24.8 µM (inactive),16.9 µM (inactive),23.5 µM (inactive),15.1 µM (inactive),> 100 µM (inactive),16.7 µM (inactive),> 100 µM (inactive)
S=C1CCSc2c(ccc3ccccc23)N1,> 100 µM (inactive),> 100 µM (inactive),> 100 µM (inactive),> 100 µM (inactive),74.3 µM (inactive),> 100 µM (inactive),,95.5 µM (inactive),,19.1 µM (inactive),58.5 µM (inactive),41.4 µM (inactive),93.8 µM (inactive),35.6 µM (inactive),> 100 µM (inactive),> 100 µM (inactive),> 100 µM (inactive),> 100 µM (inactive),0.512 µM (active),
Cc1[nH]c2ncn(Nc3ccccc3)c(=N)c2c1Cc1ccccc1,> 80.5 µM (inactive),,19.7 µM (inactive),> 75.9 µM (inactive),71.3 µM (inactive),66.1 µM (inactive),34.1 µM (inactive),> 51.3 µM (inactive),> 100 µM (inactive),8.28 µM (inactive),,32.4 µM (inactive),0.0254 µM (active),21.2 µM (inactive),30.1 µM (inactive),0.0998 µM (active),0.522 µM (active),35.4 µM (inactive),30.6 µM (inactive),33 µM (inactive)
C[N+](C)(CCNc1ccc(NCC[N+](C)(C)Cc2ccc([N+](=O)[O-])cc2)c2c1C(=O)c1ccccc1C2=O)Cc1ccc([N+](=O)[O-])cc1,> 100 µM (inactive),,> 100 µM (inactive),> 100 µM (inactive),> 100 µM (inactive),> 100 µM (inactive),> 100 µM (inactive),> 100 µM (inactive),> 100 µM (inactive),> 100 µM (inactive),> 100 µM (inactive),> 100 µM (inactive),> 100 µM (inactive),> 100 µM (inactive),> 100 µM (inactive),> 100 µM (inactive),> 100 µM (inactive),> 100 µM (inactive),,> 100 µM (inactive)
CCOC(=O)c1c(-c2ccc(OC)cc2)c(C#N)c(=S)n(C2OC(COC(C)=O)C(OC(C)=O)C(OC(C)=O)C2OC(C)=O)c1-c1ccccc1 (stereo unspecified),> 100 µM (inactive),> 100 µM (inactive),> 100 µM (inactive),> 100 µM (inactive),60 µM (inactive),> 100 µM (inactive),> 100 µM (inactive),> 100 µM (inactive),> 100 µM (inactive),29.9 µM (inactive),,> 100 µM (inactive),> 100 µM (inactive),> 100 µM (inactive),> 100 µM (inactive),,> 100 µM (inactive),> 100 µM (inactive),> 100 µM (inactive),
Cc1c(CCN2CCOCC2)c(N2CCOCC2)n2c(nc3ccccc32)c1C#N,> 10 µM (inactive),> 10 µM (inactive),> 10 µM (inactive),> 10 µM (inactive),> 10 µM (inactive),8.95 µM (inactive),> 10 µM (inactive),> 10 µM (inactive),> 10 µM (inactive),3.77 µM (inactive),,> 10 µM (inactive),> 10 µM (inactive),> 10 µM (inactive),> 10 µM (inactive),> 10 µM (inactive),> 10 µM (inactive),> 10 µM (inactive),> 10 µM (inactive),6.31 µM (inactive)
CN(Cc1cnc2nc(N)nc(N)c2n1)c1ccc(C(=O)NCCS(=O)(=O)O)cc1,> 100 µM (inactive),> 100 µM (inactive),> 100 µM (inactive),> 100 µM (inactive),> 100 µM (inactive),> 100 µM (inactive),> 100 µM (inactive),> 100 µM (inactive),> 100 µM (inactive),> 100 µM (inactive),> 100 µM (inactive),> 100 µM (inactive),> 100 µM (inactive),67.6 µM (inactive),> 100 µM (inactive),> 100 µM (inactive),91.6 µM (inactive),> 100 µM (inactive),,> 100 µM (inactive)
COC(=O)c1ccccc1C1CN=NC12Cc1cc(C)cc(C)c1C2=O (stereo unspecified),83.2 µM (inactive),> 100 µM (inactive),64.1 µM (inactive),60.4 µM (inactive),23.1 µM (inactive),> 100 µM (inactive),62.7 µM (inactive),> 100 µM (inactive),> 100 µM (inactive),86.3 µM (inactive),13.3 µM (inactive),> 100 µM (inactive),75.5 µM (inactive),,96.6 µM (inactive),30.5 µM (inactive),44.1 µM (inactive),> 100 µM (inactive),> 100 µM (inactive),2.9 µM (inactive)
